Test results as given in US20040043055A1 (AJINOMOTO CO. INC., priority 2002, published 2004).

What was measured:
[1] = Example 1: body weight of mice on high fat diet containing L-glutamine, with or without treadmill exercise; type: in vivo, C57BL/6J mice
Procedure: (§1) Fifty male C57BL/6J mice, 9 weeks old, were used herein. […] The experiment was conducted for 16 weeks. The mice exercised on a treadmill at moderate intensity (at 4.0 m/min) for 30 minutes a day, 5 days a week. It is known that oxygen consumption (VO2) strongly correlates with exercise intensity. However, VO2 reaches the plateau at a certain point as exercise intensity increases, which is defined as maximum oxygen consumption (VO2max). Percentage of maximum oxygen consumption (% VO2max) is one of the common ways to indicate the exercise intensity. According to Schefer V. and Talan M. I. (Exp. Gerontol. 31:387 (1996)), a running speed of 3-4 m/min which was the same intensity of exercise used herein produced a VO2 equivalent to 54-58% of the VO2max in adult C57BL/6J mice. In 16 weeks of the experiment, plasma and liver samples were obtained after overnight starvation.
Relative body weight to the LF group in week 5, 10, and 16 are shown in FIGS. 1, 2, and 3, respectively.
Applying to a human, assuming a life span of 70 years, 10 weeks and 4 months for mice correspond to 7 and 12 years for a human, respectively.

[2] = Example 1: fasting plasma insulin concentration in week 16; type: in vivo, C57BL/6J mice; settings: FIG. 4
Procedure: as §1

[3] = Example 2: body weight, epididymal fat and abdominal fats after 6 weeks of high fat diet containing L-glutamine; type: in vivo, C57BL/6J mice; settings: high fat diet containing 3.6% or 6.0% of L-glutamine
Procedure: Forty of male C57BL/6J mice, age 5 weeks, were used herein. […] After 6 weeks of the diet feedings, body weight and epididymal fat weight were measured.

[4] = Solubility limit of L-glutamine in liquid product; type: physicochemical
[5] = Example 1: liver glycogen content after starvation in week 16; type: in vivo, C57BL/6J mice; settings: 24 h starvation, L-glutamine plus exercise, FIG. 5
Procedure: The results of glycogen contents in the liver after starvation were the same trends as plasma insulin concentrations (FIG. 5).
as §1

solubility limit ([4]; 0° C.): 8.3 g per 473 milliliters | solubility limit ([4]; 18° C.): 12.3 g per 473 milliliters | solubility limit ([4]; 30° C.): 22.7 g per 473 milliliters | remaining glycogen content in the liver after starvation [5]: the lowest
SMILES: NC(=O)CC[C@H](N)C(=O)O [L-glutamine]
body weight gain by high fat feeding ([1]; week 5, exercise groups, 6.0% L-glutamine plus exercise (6Q+EX) vs HF+EX, FIG. 1): prevented considerably | rate of body weight gain ([1]; week 5, non-exercise groups, high fat diet containing 6.0% of L-glutamine (6Q) vs HF, FIG. 1): did not reduce the rate of body weight gain | synergistic effect of L-glutamine and exercise on body weight gain ([1]; week 10, 6Q+EX, FIG. 2): synergistic effect lasted for 10 weeks | combined effects on body weight ([1]; week 16, 6Q+EX compared to HF+EX, FIG. 3): combined effects disappeared in week 16, although lower body weight was still observed | plasma insulin concentrations ([2]; L-glutamine administration alone, high fat feeding): reduced plasma insulin concentrations | plasma insulin concentrations ([2]; combination of L-glutamine administration and exercise): the lowest and was close to that of LF group | weights of abdominal fats [3]: decreased in a dose-dependent manner | weights of epididymal fat ([3]; FIG. 7): decreased in a dose-dependent manner | rates of body weight gain ([3]; no exercise, FIG. 6): reduced by L-glutamine administrations in a dose-dependent manner
